{
  "source": "patent US20090221520A1",
  "about": "“Polyene Antibiotics, Compositions Containing Said Antibiotics, Method and Micro-Organisms Used to Obtain Same and Applications Thereof” (priority 2005, published 2009)",
  "key": {"Human erythrocytes": {"tested_on": "Human erythrocytes", "experiment": "Trials of haemolytic activity (toxicity) on human blood", "assay_type": "cell-based", "details": "for haemolytic activity as a total percentage of haemolysis: 2.5% human blood, 37° C., 30 minutes, Example 1", "description": "The trials were conducted according to the method described by Gómez-Gómez et al. (Gómez-Gómez, J. M. et al., 1996, Mol. Microbiol. 19: 909-910). The samples of polyenes were first dried and then dissolved in DMSO at an estimated concentration of 10 to 30 mg/mL. Increasing quantities of the different polyenes were taken to a final volume of 100 μL of DMSO and mixed by means of gentle stirring with 500 μL of PBS buffer (Gómez-Gómez, J. M. et al., 1996, cited earlier), containing 2.5% of human blood, or eventually that of horse. After incubation at 37° C. for 30 minutes without stirring, the cells were sedimented by centrifugation and the degree of haemolysis was assessed by means of measuring the absorption at 545 nm. The values corresponding to the total haemolysis were estimated with a suspension of 2.5% of horse blood in distilled water. The human blood (fundamentally erythrocytes) was obtained from local blood banks (Hospital Ramón y Cajal, Madrid); the horse blood came from Oxoid (defibrinated blood). The amphotericin B and the nystatin were obtained from Sigma (catalogue numbers A-4888 and N-3503, respectively) and the pimaricin came from Calbiochem (527962). All these polyenes were tested directly from commercial samples, without any additional purification\nIn the above experiments it is clear that the modification of the novel amidated polyenes, produced by the genetic recombinants of Streptomyces diastaticus var. 108 gave rise to compounds with high antifungal activity. […] Human erythrocytes were used as cell models for this study (Cybulska B, et al., 2000, Acta Biochim. Pol. 47: 121-131; Gómez-Gómez, J. M. et al., 1996, Mol. Microbiol. 19: 909-910). The haemolytic activity of the novel compounds was assessed (see the section relating to Experimental Methods) against rimocidin and CE-108; amphotericin B and nystatin A were also included. […] It is worth while highlighting the differences in toxicity observed between CE-108 (IIb) and CE-108B (I-1b) with rimocidin (IIa) and rimocidin B (I-1a); while 50% of haemolysis is achieved with 40 to 60 nanomoles for the last two polyenes, a concentration of CE-108 and is amide 6 or 7 times greater is required in order to achieve the same degree of haemolysis.\nThe trials were conducted on human blood enriched in eritrocytes, as described previously in Example 1.\nIn order to measure whether other pharmacological properties of the novel tetraenes were different, haemolytic activity trials were conducted and compared with the parent compounds. Human eritrocytes, were used for these tests. It can be pointed out that although the antifungal activities of rimocidin (IIa) and rimocidin C (IIIa) were similar, their toxicities (measured in terms of haemolytic activity) were 2.5-5 times lower for rimocidin C (IIIa) than for rimocidin (IIa)."}, "[1]": {"tested_on": "Penicillium chrysogenum, Candida albicans, Aspergillus niger, Candida krusei and Cryptococcus neoformans", "experiment": "Antifungal activity trials, paper discs on bioassay plates", "assay_type": "cell-based", "details": "for antifungal activity (in words): paper disc trials, Example 1; for increase of antifungal activity by substitution of the free carboxyl- group for the amide- group: versus parent tetraene, all tested fungi, paper discs 9 mm; for antifungal activities compared with the end products rimocidin (IIa) and CE-108 (IIb): measured as in example 1, Example 2", "description": "P. chysogenum, C. krusei, A. niger, C. albicans and C. neoformans, fungi used for testing antifungal activity, were grown in MPDA medium (composition: 2% malt extract, 2% glucose, 0.1% Bactopeptone).\n(§1) The antifungal activity of the novel amidated tetraenes [rimocidin B (I-1a) and CE-108B (I-1b)] was tested against various fungi: Penicillium chrysogenum, Candida albicans, Aspergillus niger, Candida krusei and Cryptococcus neoformans. Increasing quantities of the different tetraenes, dissolved in methanol, were applied to paper discs (9 mm in diameter); following the application, the discs were dried and placed on bioassay plates on which the corresponding test fungi had previously been spread. The activity of these amidated tetraenes was compared with that of the molecules from which they derived [[…]], showing that the biological activity of the amidated polyenes was substantially greater than that of the corresponding tetraenes that they derived from (FIG. 2) in all tested fungi. In all cases, the substitution of the free carboxyl- group for the amide- group increased the antifungal activity by approximately fourfold.\nThe antifungal activity of the novel non-carboxylated tetraenes rimocidin C (IIIa) and CE-108C (IIIb) was measured against Penicillium chrysogenum, Candida albicans, Aspergillus niger, Candida krusei and Cryptococcus neoformans, in comparison with that of the native tetraenes rimocidin (IIa) and CE-108 (IIb)."}, "Penicillium chrysogenum": {"tested_on": "Penicillium chrysogenum", "experiment": "Antifungal activity of pimaricin and AB-400 towards P. chrysogenum", "assay_type": "cell-based", "details": "for antifungal activity at the tested concentration: P. chrysogenum, a total of 200 ng added in each test", "description": "RGU5.3. […] RGU5.3 grown in medium with acetate (FIG. 3A) or glucose (FIG. 3B) as source of carbon, respectively. FIG. 3C illustrates the antifungal activity of pimaricin (IVa) and AB-400 (IVb) towards P. chrysogenum; the samples of polyenes applied were (1): commercial pimaricin (Calbiochem […]), (2): total extract of the fermentation culture of S. sp. RGU5.3 grown in glucose medium; (3) purified AB-400 coming from S. sp. RGU5.3 and (4) pimaricin coming from S. sp. RGU5.3; a total of 200 ng. were added in each test.\nas §1\nThe same results were obtained comparing pimaricin (IVa) and its amidated derivative AB-400 (IVb). Both compounds were purified starting from the isolated strain Streptomyces sp. RGU5.3, as indicated in the section on Experimental Methods. […] In this way, using a fermentation culture containing glucose as the source of carbon and not sodium acetate, the pimaricin/AB-400 balance is 70/30; when the same medium is supplemented with sodium acetate, the production profile is reversed, being AB-400 (IVb) the main polyene compound produced (FIG. 3). […]"}},
  "data": [
    {"compound": "CCC1C(=O)O[C@H](C)C/C=C/C=C/C=C/C=C/[C@H](OC2OC(C)C(O)C(N)C2O)C[C@@H]2O[C@](O)(CC(O)CCCC(=O)CC1O)C[C@H](O)[C@H]2C(=O)O", "note": "(stereo partly drawn) [CE-108 (IIb), CE-108]", "values": [
      {"measurement": "concentration required to achieve the same degree (50%) of haemolysis, times greater than for rimocidin and rimocidin B", "setting": "Human erythrocytes", "result": "6 or 7 times"},
      {"measurement": "antifungal activity (in words)", "setting": "[1]", "result": "low"}
    ]},
    {"compound": "CE-108B [CE-108B (I-1b)]", "values": [
      {"measurement": "concentration required to achieve the same degree (50%) of haemolysis, times greater than for rimocidin and rimocidin B", "setting": "Human erythrocytes", "result": "6 or 7 times"},
      {"measurement": "haemolytic activity compared with the corresponding tetraene it derived from", "setting": "Human erythrocytes", "result": "not significantly different"},
      {"measurement": "haemolytic activity, times lower than that of rimocidin", "setting": "Human erythrocytes", "result": "6 or 7 times"},
      {"measurement": "antifungal activity (in words)", "setting": "[1]", "result": "almost as high as that of rimocidin"},
      {"measurement": "increase of antifungal activity by substitution of the free carboxyl- group for the amide- group", "setting": "[1]", "result": "approximately fourfold"}
    ]},
    {"compound": "C[C@@H]1[C@H](O)[C@@H](C)/C=C/C=C/CC/C=C/C=C/C=C/C=C/C(O[C@H]2O[C@H](C)[C@@H](O)[C@H](N)[C@@H]2O)CC2O[C@](O)(CC(O)C(O)CCC(O)CC(O)CC(O)CC(=O)O[C@H]1C)CC(O)C2C(=O)O", "note": "(stereo partly drawn) [Nystatin A, nystatin A]", "values": [
      {"measurement": "haemolytic activity as a total percentage of haemolysis", "setting": "Human erythrocytes; 20 nanomoles of polyene", "result": 2.20, "unit": "%"},
      {"measurement": "haemolytic activity as a total percentage of haemolysis", "setting": "Human erythrocytes; 40 nanomoles of polyene", "result": 49.53, "unit": "%"},
      {"measurement": "haemolytic activity as a total percentage of haemolysis", "setting": "Human erythrocytes; 60 nanomoles of polyene", "result": 76.80, "unit": "%"},
      {"measurement": "haemolytic activity as a total percentage of haemolysis", "setting": "Human erythrocytes; 80 nanomoles of polyene", "result": 92.79, "unit": "%"},
      {"measurement": "haemolytic activity as a total percentage of haemolysis", "setting": "Human erythrocytes; 100 nanomoles of polyene", "result": 100.00, "unit": "%"}
    ]},
    {"compound": "rimocidin B [Rimocidin B (I-1a)]", "values": [
      {"measurement": "haemolytic activity compared with the corresponding tetraene it derived from", "setting": "Human erythrocytes", "result": "not significantly different"},
      {"measurement": "quantity with which 50% of haemolysis is achieved", "setting": "Human erythrocytes", "result": "40 to 60", "unit": "nmol"},
      {"measurement": "increase of antifungal activity by substitution of the free carboxyl- group for the amide- group", "setting": "[1]", "result": "approximately fourfold"}
    ]},
    {"compound": "C[C@@H]1C\\C=C/C=C\\C=C/C=C[C@H](O[C@@H]2O[C@H](C)[C@@H](O)[C@H](N)[C@@H]2O)C[C@@H]2O[C@](O)(C[C@@H](O)C[C@H]3O[C@@H]3/C=C\\C(=O)O1)C[C@H](O)[C@H]2C(N)=O", "note": "[AB-400 (IVb), AB-400]", "values": [
      {"measurement": "haemolytic activity of AB-400 compared with commercial pimaricin", "setting": "Human erythrocytes", "result": "did not show significant differences"},
      {"measurement": "antifungal activity at the tested concentration", "setting": "Penicillium chrysogenum", "result": "highly active"},
      {"measurement": "difference in antifungal activity between AB-400 and pimaricin", "setting": "Penicillium chrysogenum; Penicillium chrysogenum", "result": "~1 order of magnitude"},
      {"measurement": "solubility compared with the parent / non-amidated compound", "setting": "Solubility", "result": "increase in their solubility"}
    ]},
    {"compound": "14-decarboxy-14-methyl-rimocidin [Rimocidin C (IIIa)]", "values": [
      {"measurement": "toxicity (measured in terms of haemolytic activity), times lower than for rimocidin (IIa)", "setting": "Human erythrocytes", "result": "2.5-5 times"},
      {"measurement": "antifungal activities compared with the end products rimocidin (IIa) and CE-108 (IIb)", "setting": "[1]", "result": "not significantly different"}
    ]},
    {"compound": "CCC[C@@H]1C/C=C/C=C/C=C/C=C/[C@H](O[C@@H]2O[C@H](C)[C@@H](O)[C@H](N)[C@@H]2O)C[C@@H]2O[C@](O)(C[C@@H](O)CCCC(=O)C[C@@H](O)[C@H](CC)C(=O)O1)C[C@H](O)[C@H]2C(=O)O", "note": "[Rimocidin (IIa), rimocidin]", "values": [
      {"measurement": "quantity with which 50% of haemolysis is achieved", "setting": "Human erythrocytes", "result": "40 to 60", "unit": "nmol"}
    ]},
    {"compound": "C[C@@H]1C/C=C/C=C/C=C/C=C/[C@H](O[C@@H]2O[C@H](C)[C@@H](O)[C@H](N)[C@@H]2O)C[C@@H]2O[C@](O)(C[C@@H](O)C[C@H]3O[C@@H]3/C=C/C(=O)O1)C[C@H](O)[C@H]2C(=O)O", "note": "[pimaricin (IVa), pimaricin]", "values": [
      {"measurement": "antifungal activity at the tested concentration", "setting": "Penicillium chrysogenum", "result": "no antifungal activity was observed"}
    ]},
    {"compound": "14-decarboxy-methyl-CE-108 [CE-108C (IIIb)]", "values": [
      {"measurement": "antifungal activities compared with the end products rimocidin (IIa) and CE-108 (IIb)", "setting": "[1]", "result": "not significantly different"}
    ]}
  ]
}
